pIC50: −log10 of the molar value.
What follows are molecules tested against T1, human macrophage elastase (HME/hMMP-12) (Homo sapiens, UniProt P39900) (assay: In vitro HME inhibition test (standard or high-sensitivity)). Conditions: in some cases mean values, rounded to two significant figures.
T1 construct: purchased R&D Systems 917-MP
Format: biochemical
Method in brief: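 Autoactivated HME (0.5 nM; high-sensitivity format 0.05 nM, ~16 h) with 5 μM quenched Mca-PLGLEEA-Dap(Dnp)-NH2 substrate in HEPES pH 7.4, NaCl, CaCl2, ZnCl2, EDTA, Brij buffer, 2 h at 37° C. Fluorescence at ex 323/em 393 nm; IC50 from signal versus concentration.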

T1 sequence (P39900 106-470): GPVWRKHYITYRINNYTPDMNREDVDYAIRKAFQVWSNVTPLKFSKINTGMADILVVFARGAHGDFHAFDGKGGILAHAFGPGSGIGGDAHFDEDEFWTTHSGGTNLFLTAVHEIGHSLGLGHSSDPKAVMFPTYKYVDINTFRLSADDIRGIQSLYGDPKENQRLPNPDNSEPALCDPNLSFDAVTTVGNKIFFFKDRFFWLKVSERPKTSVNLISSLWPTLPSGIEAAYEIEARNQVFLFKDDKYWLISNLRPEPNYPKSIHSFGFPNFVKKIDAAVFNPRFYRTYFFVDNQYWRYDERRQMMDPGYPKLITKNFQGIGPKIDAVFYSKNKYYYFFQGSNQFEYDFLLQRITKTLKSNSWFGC

Going from `O=C(CC(CCn1nnc2ccccc2c1=O)C(=O)O)c1noc2cc(OCC3CCOCC3)ccc12` (racemic) [Example 133, (+/−)-4-Oxo-2-[2-(4-oxo-1,2,3-benzotriazin-3(4H)-yl)ethyl]-4-[6-(tetrahydro-2H-pyran-4-ylmethoxy)-1,2-benzoxazol-3-yl]butanoic acid] to `O=C(CC(CCn1nnc2ccccc2c1=O)C(=O)O)c1noc2cc(OCC3CCCC3)ccc12` (racemic) [Example 152, (+/−)-4-[6-(Cyclopentylmethoxy)-1,2-benzoxazol-3-yl]-4-oxo-2-[2-(4-oxo-1,2,3-benzotriazin-3(4H)-yl)ethyl]butanoic acid], the pIC50 falls from 9.62 to 8.85 (0.77 log units).

First: CCCCCOc1ccc2c(C(=O)CC(CCn3nnc4ccccc4c3=O)C(=O)O)coc2c1 (single isomer, unassigned) [Example 90, 4-Oxo-2-[2-(4-oxo-1,2,3-benzotriazin-3(4H)-yl)ethyl]-4-[6-(pentyloxy)-1-benzofur-3-yl]butanoic acid]
Second: CCCCOc1ccc2c(C(=O)CC(CCn3nnc4ccccc4c3=O)C(=O)O)coc2c1 (single isomer, unassigned; (-)) [Example 109, (−)-4-(6-Butoxy-1-benzofur-3-yl)-4-oxo-2-[2-(4-oxo-1,2,3-benzotriazin-3(4H)-yl)ethyl]butanoic acid]
The pIC50 of the first is 0.91 log units lower: 7.09 for the first, 8.00 for the second. The second is the more potent here.

First: CCCCCCCOc1ccc2cc(C(=O)CC(CCn3nnc4ccccc4c3=O)C(=O)O)oc2c1 (single isomer, unassigned; (-)) [Example 68, (−)-4-[6-(Heptyloxy)-1-benzofur-2-yl]-4-oxo-2-[2-(4-oxo-1,2,3-benzotriazin-3(4H)-yl)ethyl]butanoic acid]
Second: CCCCOc1ccc2cc(C(=O)CC(CCn3nnc4ccccc4c3=O)C(=O)O)oc2c1 (single isomer, unassigned; (+)) [Example 63, (+)-4-(6-Butoxy-1-benzofur-2-yl)-4-oxo-2-[2-(4-oxo-1,2,3-benzotriazin-3(4H)-yl)ethyl]butanoic acid]
The pIC50 of the first is 2.61 log units lower: 6.05 for the first, 8.66 for the second. The second is the more potent here.

Compared with `O=C(CC(CCn1nnc2ccc(C(F)(F)F)cc2c1=O)C(=O)O)c1cc2ccc(OCC3CC3)cc2s1` (racemic) [Example 128, (+/−)-4-[6-(Cyclopropylmethoxy)-1-benzothiophen-2-yl]-4-oxo-2-{2-[4-oxo-6-(trifluoromethyl)-1,2,3-benzotriazin-3(4H)-yl]ethyl}butanoic acid], `O=C(CC(CCn1nnc2ccccc2c1=O)C(=O)O)c1cc2ccc(OCC(=O)C3CC3)cc2s1` (racemic) [Example 115, (+/−)-4-[6-(2-Cyclopropyl-2-oxoethoxy)-1-benzothiophen-2-yl]-4-oxo-2-[2-(4-oxo-1,2,3-benzotriazin-3(4H)-yl)ethyl]butanoic acid] is 0.45 log units lower in pIC50: 8.96 for the first, 8.51 for the second. The first is the more potent here.

First: O=C(CC(CCn1nnc2ccccc2c1=O)C(=O)O)c1noc2cc(OCCC3CCCCC3)ccc12 (single isomer, unassigned; enantiomer 1) [Example 142, (−)-4-[6-(2-Cyclohexylethoxy)-1,2-benzoxazol-3-yl]-4-oxo-2-[2-(4-oxo-1,2,3-benzotriazin-3(4H)-yl)ethyl]butanoic acid (enantiomer 1)]
Second: O=C(CC(CCn1nnc2ccccc2c1=O)C(=O)O)c1cc2cc(OCC3CCCCC3)ccc2o1 (single isomer, unassigned; enantiomer 1) [Example 9, (−)-4-[5-(Cyclohexylmethoxy)-1-benzofur-2-yl]-4-oxo-2-[2-(4-oxo-1,2,3-benzotriazin-3(4H)-yl)ethyl]butanoic acid (enantiomer 1)]
The pIC50 of the first is 1.39 log units higher: 7.82 for the first, 6.43 for the second. The first is the more potent here.

`O=C(CC(CCn1nnc2ccccc2c1=O)C(=O)O)c1cc2cc(OCCc3ccccc3)ccc2o1` (racemic) [Example 19, (+/−)-4-Oxo-2-[2-(4-oxo-1,2,3-benzotriazin-3(4H)-yl)ethyl]-4-[5-(2-phenylethoxy)-1-benzofur-2-yl]butanoic acid] and `O=C(CC(CCn1nnc2ccccc2c1=O)C(=O)O)c1cc2cc(OCc3ccccc3)ccc2o1` (racemic) [Example 28, (+/−)-4-[5-(Benzyloxy)-1-benzofur-2-yl]-4-oxo-2-[2-(4-oxo-1,2,3-benzotriazin-3(4H)-yl)ethyl]butanoic acid] are within 0.2 log units of each other in pIC50: 8.33 for the first, 8.51 for the second.

First: O=C(CC(CCn1nnc2ccccc2c1=O)C(=O)O)c1cc2cc(OCc3ccc(F)cc3)ccc2o1 (single isomer, unassigned; (-)) [Example 24, (−)-4-{5-[(4-Fluorobenzyl)oxy]-1-benzofur-2-yl}-4-oxo-2-[2-(4-oxo-1,2,3-benzotriazin-3(4H)-yl)ethyl]butanoic acid]
Second: O=C(CC(CCn1nnc2ccccc2c1=O)C(=O)O)c1cc2cc(OCc3ccccc3F)ccc2o1 (racemic) [Example 45, (+/−)-4-{5-[(2-Fluorobenzyl)oxy]-1-benzofur-2-yl}-4-oxo-2-[2-(4-oxo-1,2,3-benzotriazin-3(4H)-yl)ethyl]butanoic acid]
The pIC50 of the first is 1.96 log units lower: 6.68 for the first, 8.64 for the second.

`N#CCCCCOc1ccc2oc(C(=O)CC(CCn3nnc4ccccc4c3=O)C(=O)O)cc2c1` (racemic) [Example 53, (+/−)-4-[5-(4-Cyanobutoxy)-1-benzofur-2-yl]-4-oxo-2-[2-(4-oxo-1,2,3-benzotriazin-3(4H)-yl)ethyl]butanoic acid] and `CCCCCCCOc1ccc2cc(C(=O)CC(CCn3nnc4ccccc4c3=O)C(=O)O)oc2c1` (racemic) [Example 67, (+/−)-4-[6-(Heptyloxy)-1-benzofur-2-yl]-4-oxo-2-[2-(4-oxo-1,2,3-benzotriazin-3(4H)-yl)ethyl]butanoic acid] are within 0.2 log units of each other in pIC50: 8.54 for the first, 8.42 for the second.

First: CCCOc1ccc2c(C(=O)CC(CCn3nnc4ccccc4c3=O)C(=O)O)coc2c1 (single isomer, unassigned; (-)) [Example 87, (−)-4-Oxo-2-[2-(4-oxo-1,2,3-benzotriazin-3(4H)-yl)ethyl]-4-(6-propoxy-1-benzofur-3-yl)butanoic acid]
Second: CC(C)COc1ccc2c(C(=O)CC(CCn3nnc4ccccc4c3=O)C(=O)O)coc2c1 (single isomer, unassigned; (+)) [Example 105, (+)-4-(6-Isobutoxy-1-benzofur-3-yl)-4-oxo-2-[2-(4-oxo-1,2,3-benzotriazin-3(4H)-yl)ethyl]butanoic acid]
The pIC50 of the first is 3.35 log units lower: 6.33 for the first, 9.68 for the second. The second is the more potent here.

Going from `O=C(CC(CCn1nnc2ccccc2c1=O)C(=O)O)c1cc2cc(OCc3ccc4nonc4c3)ccc2o1` (racemic) [Example 36, (+/−)-4-[5-(2,1,3-Benzoxadiazol-5-ylmethoxy)-1-benzofur-2-yl]-4-oxo-2-[2-(4-oxo-1,2,3-benzotriazin-3(4H)-yl)ethyl]butanoic acid] to `O=C(CC(CCn1nnc2ccccc2c1=O)C(=O)O)c1cc2cc(OCc3ccc(Cl)c(Cl)c3)ccc2o1` (racemic) [Example 25, (+/−)-4-{5-[(3,4-Dichlorobenzyl)oxy]-1-benzofur-2-yl}-4-oxo-2-[2-(4-oxo-1,2,3-benzotriazin-3(4H)-yl)ethyl]butanoic acid], the pIC50 rises from 9.48 to 9.70 (0.22 log units).

Compared with `CC(C)CCOc1ccc2cc(C(=O)CC(CCn3nnc4ccccc4c3=O)C(=O)O)sc2c1` (racemic) [Example 122, (+/−)-4-[6-(3-Methylbutoxy)-1-benzothiophen-2-yl]-4-oxo-2-[2-(4-oxo-1,2,3-benzotriazin-3(4H)-yl)ethyl]butanoic acid], `O=C(CC(CCn1nnc2ccccc2c1=O)C(=O)O)c1cc2cc(OCC3CCCCC3)ccc2o1` (single isomer, unassigned; enantiomer 2) [Example 10, (+)-4-[5-(Cyclohexylmethoxy)-1-benzofur-2-yl]-4-oxo-2-[2-(4-oxo-1,2,3-benzotriazin-3(4H)-yl)ethyl]butanoic acid (enantiomer 2)] is 0.86 log units higher in pIC50: 8.35 for the first, 9.21 for the second. The second is the more potent here.

First: O=C(CC(CCn1nnc2ccccc2c1=O)C(=O)O)c1noc2cc(OCCC3CCCCC3)ccc12 (racemic) [Example 141, (+/−)-4-[6-(2-Cyclohexylethoxy)-1,2-benzoxazol-3-yl]-4-oxo-2-[2-(4-oxo-1,2,3-benzotriazin-3(4H)-yl)ethyl]butanoic acid]
Second: O=C(CC(CCn1nnc2ccccc2c1=O)C(=O)O)c1noc2cc(OCc3ccc(F)cc3)ccc12 (single isomer, unassigned; enantiomer 1) [Example 137, 4-{6-[(4-Fluorobenzyl)oxy]-1,2-benzoxazol-3-yl}-4-oxo-2-[2-(4-oxo-1,2,3-benzotriazin-3(4H)-yl)ethyl]butanoic acid (enantiomer 1)]
The pIC50 of the first is 2.46 log units higher: 9.92 for the first, 7.46 for the second. The first is the more potent here.

Going from `O=C(CC(CCn1nnc2ccccc2c1=O)C(=O)O)c1coc2cc(OCc3ccccc3)ccc12` (single isomer, unassigned; (+)) [Example 85, (+)-4-[6-(Benzyloxy)-1-benzofur-3-yl]-4-oxo-2-[2-(4-oxo-1,2,3-benzotriazin-3(4H)-yl)ethyl]butanoic acid] to `O=C(CC(CCn1nnc2ccccc2c1=O)C(=O)O)c1noc2cc(OCc3ccc(Cl)cc3)ccc12` (racemic) [Example 147, (+/−)-4-{6-[(4-Chlorobenzyl)oxy]-1,2-benzoxazol-3-yl}-4-oxo-2-[2-(4-oxo-1,2,3-benzotriazin-3(4H)-yl)ethyl]butanoic acid], the pIC50 falls from 9.42 to 8.77 (0.65 log units). The first is the more potent here.

These molecules were tested on rat hepatocytes (assay: Hepatocyte assay for determination of metabolic stability). Conditions: after incubation with rat hepatocytes.
Format: in vitro ADME
Experimental: The metabolic stability of test compounds towards hepatocytes is determined by incubating the compounds at low concentrations (preferably below or around 1 μM) and at low cell counts (preferably at 1*10^6 cells/ml) in order to ensure maximum linearity of kinetic conditions in the experiment. Seven samples from the incubation solution are taken for the LC-MS analysis within a fixed time pattern, in order to determine the half-life (i.e. the degradation) of the particular compound. This half-life is used to calculate various “Clearance” parameters (CL) and “Fmax” values (see below).
The CL and Fmax values are a measure of the phase 1 and phase 2 metabolism of the compounds in the hepatocytes. In order to minimize the influence of the organic solvent on the enzymes in the incubation batches, the concentration thereof is generally limited to 1% (acetonitrile) or 0.1% (DMSO).
For all species and breeds, a hepatocyte cell count in the liver of 1.1*10^8 cells/g of liver is expected.

With `O=C(CC(CCn1nnc2ccccc2c1=O)C(=O)O)c1noc2cc(OCC3CCOCC3)ccc12` (racemic) [Example 133, (+/−)-4-Oxo-2-[2-(4-oxo-1,2,3-benzotriazin-3(4H)-yl)ethyl]-4-[6-(tetrahydro-2H-pyran-4-ylmethoxy)-1,2-benzoxazol-3-yl]butanoic acid] the “CLblood (calculated blood clearance, well-stirred)” value was 13.3 mL/min/kg.

`O=C(CC(CCn1nnc2ccccc2c1=O)C(=O)O)c1noc2cc(OCC3CCOCC3)ccc12` (racemic) [Example 133, (+/−)-4-Oxo-2-[2-(4-oxo-1,2,3-benzotriazin-3(4H)-yl)ethyl]-4-[6-(tetrahydro-2H-pyran-4-ylmethoxy)-1,2-benzoxazol-3-yl]butanoic acid] was tested, and the “Fmax (maximum possible bioavailability after oral administration, well-stirred)” value was 81.1%.

— patent US20170121315A1, “HETEROBICYCLICALLY SUBSTITUTED 4-OXOBUTANE ACID DERIVATIVES AND USE THEREOF” (priority 2014, published 2017)
